Experimental data: patent publication US20190145962A1, “PEPTIDE FOR […] OF AMYLOSPHEROIDS (ASPD), AND […] SCREENING METHOD” (TAO HEALTH LIFE PHARMA CO., LTD., priority 2016, published 2019)

Tests used:
[1] = test system: binding of ASPD to neurons (synthetic ASPD, primary cultured rat hippocampal neurons); test: Evaluation of ASPD-inhibitory peptides: inhibition of binding of ASPD to cultured neurons (immunofluorescence imaging, titer); assay type: cell-based; details: for ASPD-binding inhibitory ability (titer) compared with known ASPD neutralizing peptide 01 (HFNW): qualitative comparison with peptide 01, FIG. 3 and FIG. 4; for effect of inhibiting binding of ASPD to neurons: qualitative, evaluation of section 1
Description: Evaluation of peptides that inhibits binding of ASPD to neurons was performed by the following method.
Step 1: Adding a liquid mixture containing peptide and ASPD, which have been mixed together and then incubated, to cultured mature neurons.
Step 2: Degenerating (immobilizing) the neurons.
Step 3: Immunostaining the neurons and the ASPD, respectively, to perform imaging.
Step 4: Analyzing the image to quantify the ASPD bound to the neurons.
Step 5: Evaluating the peptides using the amount of the ASPD bound and/or an analytical value obtained therefrom.
Steps 1 to 3 were performed as follows:
A liquid mixture of peptide and synthetic ASPD was incubated at 4° C. for 15 minutes to pretreat the ASPD and this liquid mixture was added to primary cultured rat hippocampal neurons cultured in a 96-well plate.
After incubation at 37° C. for 15 minutes in a CO2 incubator, the wells were washed with PBS. Then, 2% paraformaldehyde (50 μl/well) was added thereto for immobilization performed for 20 minutes at 37° C. and further 4% paraformaldehyde (50 μl/well) was added thereto for immobilization performed for 20 minutes at 37° C. After washing and blocking, a primary antibody solution containing anti-ASPD antibody (mASD3) and anti-MAP2 antibody (trade name: sc-20172, manufactured by SANTACRUZ) was added, which then was left overnight. After washing, a secondary antibody solution containing Alexa Fluoro (trademark) 568 anti-mouse antibody (trade name: A11031, manufactured by life technologies), Alexa Fluoro (trademark) 488 anti-rabbit antibody (trade name: A11034, manufactured by life technologies), and DAPI (trade name: D523, manufactured by Dojindo) was added and then fluorescence microscopic observation was performed.
Subsequently, steps 4 to 5 were performed as follows: From the microscopic observation data, a calibration curve as shown in FIG. 2 was drawn, an approximate curve was created within a range where linearity was maintained, and then ED50 was calculated. Using, as an indicator, “titer” that is defined by the ratio of ED50 of the ASPD treated with peptide to ED50 of the ASPD alone, the ASPD-binding inhibitory ability of peptide was evaluated.
Titer=ED50[ASPD+Peptide]/ED50[ASPD]

Synthetic ASPD = target: T1, Synthetic ASPD (Homo sapiens, UniProt P05067); test: Surface plasmon resonance (SPR), synthetic ASPD solid-phased on a chip, peptide as analyte; assay type: binding; details: class symbols, key not given; the dissociation constant (KD) was determined but is not given
T1 construct: can be produced by slowly rotating a liquid containing Aß
Description: Synthetic ASPD were solid-phased on a chip and each peptide shown in Table 3 below was allowed to flow as an analyte. Then the dissociation constant (KD) was determined by surface plasmon resonance (SPR).

T1 sequence (P05067 672-713 limits assumed): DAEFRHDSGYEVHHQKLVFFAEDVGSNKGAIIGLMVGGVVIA

Substance | ASPD-binding inhibitory ability (titer) compared with known ASPD neutralizing peptide 01 (HFNW) [1] | effect of inhibiting binding of ASPD to neurons [1] | Results of SPR (Ability to Bind to ASPD) (Synthetic ASPD)
HFKW [Peptide 22] | superior | – | –
HANW [Peptide 10] | comparable to that of known ASPD neutralizing peptide 01 (HFNW) | – | –
HNNW [reference compound] | – | could not inhibit the binding of ASPD to neurons | No binding was found.
HFWW [Peptide 15] | – | showed the effect of inhibiting binding of ASPD to neurons | –
HFNW [Peptide 01, known ASPD neutralizing peptide, reference compound] | – | showed the effect of inhibiting binding of ASPD to neurons | –
HTNW [Peptide 09] | comparable to that of known ASPD neutralizing peptide 01 (HFNW) | showed the effect of inhibiting binding of ASPD to neurons | –
HYNW [Peptide 08] | – | showed the effect of inhibiting binding of ASPD to neurons | –
HFRW [Peptide 16] | superior | – | –
HPNW [reference compound] | – | could not inhibit the binding of ASPD to neurons | No binding was found.
HFDW [Peptide 18] | – | showed the effect of inhibiting binding of ASPD to neurons | –
HHNW [Peptide 05] | comparable to that of known ASPD neutralizing peptide 01 (HFNW) | showed the effect of inhibiting binding of ASPD to neurons | –
HVNW [Peptide 11] | comparable to that of known ASPD neutralizing peptide 01 (HFNW) | – | –
